Measurements as given in patent publication US20050203013A1, “Methods for inhibiting vascular permeability” (priority 2002, published 2005).

What was measured:
[1] = system: VEGFR-2; experiment: VEGFR-2 phosphorylation in HUVEC; type: cell-based, Human; conditions: 5 ng/ml for 2 hours
Method: Serum-starved (0.1% FBS in EBM-2 media for 24 hours) HMVEC-d or HUVEC were treated with 5 ng/ml TNP-470 and HPMA copolymer-TNP-470 at 37° C. for 2 hours, and then stimulated with 10 ng/ml of VEGF for 5 minutes. Stimulation was stopped by adding cold PBS. […] After washing the beads with precipitation buffer, immunoprecipitates were resuspended in 2× SDS sample buffer for Western blot analysis with an antibody against phosphorylated tyrosine (pTyr).

[2] = system: skin vessel permeability; experiment: Miles vascular permeability assay (Example 3); type: in vivo, SCID mice
Method: SCID mice were injected subcutaneously (s.c.) with TNP-470 or HPMA copolymer-TNP-470 (30 mg/Kg TNP-equiv.) for three days, with Y27632 (50 nM s.c.) for 11 days, with angiostatin (200 mg/kg/day s.c.) for five days, or with saline (250 μl s.c.) for 5 days (n=12) prior to performing the Miles assay ([…] et al., 1996; Miles and Miles, 1952; Streit et al., 2000). Briefly, Evan's blue dye (100 μl of a 1% solution in 0.9% NaCl) was injected intravenously (i.v.) into mice. After 10 minutes, 50 μl of human VEGF165 (1 ng/μl), PAF (100 μM), CNF-1 (100 ng), histamine (1.2 μg/ml) or PBS (50 ul) were injected intradermally into the pre-shaved back skin. After 20 minutes, the animals were euthanized and an area of skin that included the blue spot resulting from leakage of the dye was removed. Evan's blue dye was extracted from the skin by incubation with formamide for 5 days at room temperature, and the absorbance of extracted dye was measured at 620 nm using a spectrophotometer. The unpaired Student t test was used for statistical analysis.

[3] = system: Bovine adrenal capillary endothelial cells; experiment: BCE proliferation assay; type: cell-based; conditions: challenged with bFGF, 72 h
Method: Bovine adrenal capillary endothelial cells were seeded on gelatinized plates (15,000/well). Following 24 h incubation, cells were challenged with free and conjugated TNP-470, and bFGF (1 ng/ml) was added to the medium. Cells were counted after 72 h.

[4] = system: RhoA; experiment: RhoA activation assay; type: cell-based, Human; conditions: HMVEC-d
Method: • pGST-TRBD bacteria were grown and induced with isopropyl-thiogalactoside. The bacterial suspensions were divided into 50 ml aliquots and then harvested and frozen at −80° C. To prepare the GST-TRBD beads, each aliquot of frozen bacteria was resuspended in 2 ml of cold PBS, and then 20 μl of 1 M dithiothreitol (DTT), 20 μl of 0.2 M PMSF, and 40 μl of 50 mg/ml lysozyme were added. The sample was incubated on ice for 30 minutes. Next, 225 μL of 10% Triton X-100, 22.5 μL of IM MgCl2, 22.5 μl of 2000 KU/ml DNAse were added and the sample was incubated on ice for another 30 min. The supernatant was collected and incubated with 100 μl glutathione-coupled Sepharose 4B beads (Pharmacia Biotech) at 4° C. for 45 minutes. The beads were then washed with bead washing buffer (PBS with 10 mM DTT and 1% Triton X-100) and resuspended in the same buffer to give a 50% bead slurry.
Meanwhile, 24 hours serum-starved HMVEC-d cells were treated with 5 ng/ml TNP-470 at 37° C. for 2 hours, and then stimulated with 10 ng/ml of VEGF, PAF (10 nM), or histamine ([…]) for 5 minutes. Stimulation was stopped by adding cold PBS. Cells were lysed with lysis buffer (150 mM NaCl, 0.8 mM MgCl2, 5 mM EGTA, 1% IGEPAL, 50 mM HEPES, pH 7.5, 1 mM PMSF, 10 μg/ml leupeptin, and 10 μg/ml aprotinin). The supernatant was isolated and incubated with 50 μl of GST-TRBD beads at 4° C. for 45 minutes. Protein bound to beads was washed with AP wash buffer (50 mM Tris-HCl, pH 7.2, 1% Triton X-100, 150 mM NaCl, 10 mM MgCl2, 1 mM PMSF, 10 μg/ml leupeptin, and 10 μg/ml aprotinin) and analyzed by SDS-PAGE with an antibody against RhoA (Santa Cruz Biotechnology, CA).

[5] = system: IL-2-induced pulmonary edema; experiment: IL-2 associated pulmonary edema; type: in vivo, C57B1/6J male mice
Method: C57B1/6J male mice were injected with TNP-470 (30 mg/kg daily) or saline subcutaneously (s.c.) for three days. Then mice were injected with IL-2 (1.2×106 units/100 μl) or saline intraperitoneally (i.p.) 3 times a day for 5 days. At termination mice were euthanized and lungs were dissected, weighed, fixed and processed for H & E staining.

CO[C@@H]1[C@H](OC(=O)NC(=O)CCl)CC[C@]2(CO2)[C@H]1[C@@]1(C)O[C@@H]1CC=C(C)C [TNP-470]
VPF/VEGF-induced phosphorylation of VEGFR-2 [1]: significantly reduced | CNF-1-induced Evan's blue-albumin extravasation ([2]; CNF-1 intradermal): inhibited | decrease of PAF-induced permeability ([2]; PAF intradermal): 75% | low-level permeability induced by intradermal injections of PBS ([2]; PBS intradermal): blocked | inhibition of Evan's blue dye extravasation from VPF/VEGF injection sites ([2]; VPF/VEGF intradermal): ~70% | decrease of histamine-induced permeability ([2]; histamine intradermal): 80% | BCE cell growth [3]: inhibited | PAF-induced RhoA activation [4]: inhibited | VPF/VEGF-induced RhoA activation [4]: significantly suppressed | histamine-induced RhoA activation [4]: inhibited | total body weight ([5]; 3 days treatment): did not affect total body weight | lung pathological features (congestion, edema, fibrin deposition, mononuclear infiltrate) ([5]; IL-2 treated mice): greatly reduced | lung weight ([5]; mice treated with both IL-2 and TNP-470): 170.2 ± 10.1 mg
